Experimental findings from patent US20130337564A1, “Treatment of Pluripotent Cells” (Janssen Biotech, Inc., priority 2012, published 2013) are described below.

Common to all, as to format: cell-based
Experiment [1] has as its system human embryonic stem cells (H9 line). Briefly: High content screening assay: cell number (proliferative response). As to conditions: for fold induction at 10 µM: Homo sapiens, Embryonic stem cell, read-out: Proliferative Response, Fold over Wnt 3a/AA control. The method, boiled down: (§1)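 H9 hESCs on MATRIGEL treated days 1-2 with 10 μM compound in DMEM:F12, 0.5% FCS, 100 ng/ml activin A; days 3-4 with 2% FCS plus activin A without compound. Fixed cells immunostained for Sox17 or HNF-3beta with Draq5 nuclear counterstain. Cell number and staining intensity quantified by high-content imaging, 12 fields/well.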

The subject of experiment [2] is Sox17 expression in human embryonic stem cells (H9 line). Nature of the experiment: High content screening assay: Sox17 protein expression (differentiation). The note with it: for SOX-17 Expression Fold over Wnt 3a/AA control: total intensity normalised to Wnt 3a/AA control; for fold induction at 10 µM: Homo sapiens, Embryonic stem cell, read-out: SOX17 Expression, Fold over Wnt 3a/AA control. The method, boiled down: as §1

Experiment [3] relates to cells expressing pluripotency markers derived from human embryonic stem cells. Briefly: MTS viability (toxicity) assay of cells expressing pluripotency markers. Also noted: Raw data (duplicate), first replicate / Average: unit not given here. As to conditions: for Raw data (duplicate), first replicate / Raw data (duplicate), second replicate: MTS viability assay raw reading; for Raw data (duplicate), first replicate: replicate 1; for Raw data (duplicate), second replicate: replicate 2; for Average: average of duplicate MTS raw readings; for viability at 10 µM: Homo sapiens, Embryonic stem cell; for Average of raw data (duplicate), optical density at 490 nm: MTS on day 4. The method, boiled down:
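Cells expressing pluripotency markers, derived from human embryonic stem cells, were plated at 20,000 cells per well in 96-well clear-bottom plates and cultured overnight. Test compounds were applied in assay medium on days 1 and 2, and compound-free medium on days 3 and 4. On day 4, MTS was added and optical density at 490 nm was read in duplicate.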
On the technique in general: Formazan colour is commonly taken as a measure of viable cells.

The test system of experiment [4] is HNF-3beta expression in human embryonic stem cells (H9 line). Briefly: High content screening assay: HNF-3beta protein expression (differentiation). The note with it: for HNF-3b Expression Fold over Wnt 3a/AA control: total intensity normalised to Wnt 3a/AA control. The method, boiled down:
as §1

Where [5] appears, read: 10 μM test compound with 100 ng/ml activin A on days 1-2, H9, total cell number by IN Cell Analyzer, strong and moderate hits.
The mark [6] stands for this setting: cell number in the wells analysed for HNF-3b expression.
Setting [7] is: cell number in the wells analysed for HNF-3b expression, normalised to Wnt 3a/AA control.
[8] abbreviates: cell number in the wells analysed for SOX-17 expression.
[9] abbreviates: cell number in the wells analysed for SOX-17 expression, normalised to Wnt 3a/AA control.
The mark [10] stands for this setting: 10 μM test compound with 100 ng/ml activin A on days 1-2, H9, total intensity by IN Cell Analyzer, strong and moderate hits.
Where [11] appears, read: viability of cells expressing pluripotency markers, relative to control.

In general, viability refers to a read-out of living cells in per cent, often relative to untreated cells.

Where “and” joins values, the source holds several entries; their conditions need not be identical. Equal values may be shown once.

As for `O=C1NC(=O)C2=C1c1cn(c3ccccc13)CCOCCOCCOCCOCCn1cc2c2ccccc21` [Compound 165, 10,11,13,14,16,17,19,20,22,23-Decahydro-1H-9,4:24,29-di(metheno)dibenzo[n,t]pyrrolo[3,4-q][1,4,7,10,13,22]tetraoxadiazacyclotetracosine-1,3(2H)-dione], in experiment [1] (setting [5]), the “Proliferative Response Fold over Wnt 3a/AA control” value (“Proliferative Response Fold” for short) is 5.8846 Fold over Wnt 3a/AA control. For the same compound, the “Proliferative Response Total cells” value in experiment [1] (setting [6]) worked out at 7460. Moreover, in experiment [1] (setting [7]), the “Proliferative Response Fold” value is recorded as 5.885 fold. Also, the “Proliferative Response Total cells” value in experiment [1] (setting [8]) stood at 2899. In addition, the “Proliferative Response Fold” value in experiment [1] (setting [9]) came to 1.736 fold. In addition, the “SOX17 Expression, Fold over Wnt 3a/AA control” value in experiment [2] (setting [10]) was 1.0630 Fold over Wnt 3a/AA control. In experiment [2], the “SOX-17 Expression Total Intensity” value amounted to 32703235 and the “SOX-17 Expression Fold over Wnt 3a/AA control” value was found to be 1.0630 fold. In addition, in experiment [3], the “Raw data (duplicate), first replicate” value is given as 0.690; the “Raw data (duplicate), second replicate” value is 0.674; the Average amounted to 0.682. Besides, the “% Control” value in experiment [3] (setting [11]) is 83.3%. In addition, in experiment [4] (setting [10]), the “HNF3β Expression, Fold over Wnt 3a/AA control” value was 5.4668 Fold over Wnt 3a/AA control. For the same compound, in experiment [4], the “HNF-3b Expression Total Intensity” value is given as 149772525 and the “HNF-3b Expression Fold over Wnt 3a/AA control” value came to 5.4668 fold.
In the case of `COCCCn1cc(C2=C(c3ccccc3O)C(=O)NC2=O)c2cccnc21` [Compound 22, 3-(2-Hydroxyphenyl)-4-{1-[3-(methyloxy)propyl]-1H-pyrrolo[2,3-b]pyridin-3-yl}-1H-pyrrole-2,5-dione], the “Proliferative Response Total cells” value in experiment [1] (setting [6]) turned out to be 69. For the same compound, the “Proliferative Response Total cells” value in experiment [1] (setting [8]) was 33. In addition, in experiment [2], the “SOX-17 Expression Total Intensity” value is given as 2188847. Besides, in experiment [3] (setting [11]), the viability at 10 µM is 108%. Besides, in experiment [3], the “Raw data (duplicate), first replicate” value came out at 0.900; the “Raw data (duplicate), second replicate” value came out at 0.877; the Average was 0.888. The “HNF-3b Expression Total Intensity” value in experiment [4] stood at 13689421.
In the case of `OCCC#Cc1nc(-c2ccc(F)cc2)c(-c2ccncc2)n1CCCc1ccccc1` [Compound 158, 4-[4-(4-Fluorophenyl)-1-(3-phenylpropyl)-5-pyridin-4-yl-1H-imidazol-2-yl]but-3-yn-1-ol], the “Proliferative Response Total cells” value in experiment [1] (setting [6]) was found to be 6058; in experiment [1] (setting [8]) it was 6376. For the same compound, in experiment [2], the “SOX-17 Expression Total Intensity” value came to 324450000. Further, the viability at 10 µM in experiment [3] (setting [11]) was 77.7%. In addition, in experiment [3], the “Raw data (duplicate), first replicate” value is given as 0.629. Further, the “Raw data (duplicate), second replicate” value in experiment [3] worked out at 0.659. This compound also yielded an Average in experiment [3] of 0.644. Besides, the “Average of raw data (duplicate), optical density at 490 nm” value (from here on “Average of raw data (duplicate)”) is on record as 0.7971 in experiment [3] (cmpd conc 2.5 μM), 0.8183 in experiment [3] (cmpd conc 5 μM) and 0.6052 in experiment [3] (cmpd conc 10 μM). Moreover, the “HNF-3b Expression Total Intensity” value in experiment [4] is 269025000.
For the compound `CN(C)CCCn1cc(C2=C(c3cccc4ccccc34)C(=O)NC2=O)c2cccnc21` [Compound 175, 3-{1-[3-(Dimethylamino)propyl]-1H-pyrrolo[2,3-b]pyridin-3-yl}-4-naphthalen-1-yl-1H-pyrrole-2,5-dione], the “Proliferative Response Total cells” value in experiment [1] (setting [6]) turned out to be 42. The “Proliferative Response Total cells” value in experiment [1] (setting [8]) amounted to 1. In addition, the “SOX-17 Expression Total Intensity” value in experiment [2] stood at 0. Further, in experiment [3] (setting [11]), the viability at 10 µM was found to be 3%. In addition, in experiment [3], the “Raw data (duplicate), first replicate” value was found to be 0.135; the “Raw data (duplicate), second replicate” value is reported as 0.158; the Average is on record as 0.146. For the same compound, in experiment [4], the “HNF-3b Expression Total Intensity” value was 1605538.
On to `COc1ccccc1C1=C(c2cn(CCCNC(C)=O)c3ncccc23)C(=O)NC1=O` [Compound 27, N-[3-(3-{4-[2-(Methyloxy)phenyl]-2,5-dioxo-2,5-dihydro-1H-pyrrol-3-yl}-1H-pyrrolo[2,3-b]pyridin-1-yl)propyl]acetamide], for which the “Proliferative Response Total cells” value in experiment [1] (setting [6]) is recorded as 5. Further, the “Proliferative Response Total cells” value in experiment [1] (setting [8]) is given as 5. Besides, the “SOX-17 Expression Total Intensity” value in experiment [2] came to 125443. In addition, in experiment [3] (setting [11]), the viability at 10 µM came to 7.2%. In experiment [3], the “Raw data (duplicate), first replicate” value stood at 0.160; the “Raw data (duplicate), second replicate” value came out at 0.186; the Average came to 0.173. The “HNF-3b Expression Total Intensity” value in experiment [4] is listed as 0.
As to `O=C1NC(=O)C2=C1c1cn(c3ncccc13)CCOCCOCCn1cc2c2cccnc21` [Compound 180, 6,7,9,10,12,13-Hexahydro-20H-5,23:14,19-di(metheno)dipyrido[2,3-h:3′,2′-n]pyrrolo[3,4-k][1,4,7,16]dioxadiazacyclooctadecine-20,22(21H)-dione], the “Proliferative Response Total cells” value in experiment [1] (setting [6]) was found to be 4. Also, in experiment [1] (setting [7]), the “Proliferative Response Fold” value came out at 0.003155 fold. Moreover, the “Proliferative Response Total cells” value in experiment [1] (setting [8]) turned out to be 3. Further, the “Proliferative Response Fold” value in experiment [1] (setting [9]) is 0.001796 fold. In experiment [2], the “SOX-17 Expression Total Intensity” value is 0 and the “SOX-17 Expression Fold over Wnt 3a/AA control” value was 0.0000 fold. In experiment [3], the “Raw data (duplicate), first replicate” value is 0.141 and 0.611; the “Raw data (duplicate), second replicate” value is 0.128 and 0.628. Also, in experiment [4], the “HNF-3b Expression Total Intensity” value stood at 101114 and the “HNF-3b Expression Fold over Wnt 3a/AA control” value is 0.0037 fold.
In the case of `CC(C)(O)CCn1nc(C2=C(c3cn(-c4cccnc4)c4ccccc34)C(=O)NC2=O)c2ccccc21` [Compound 223, 3-[1-(3-Hydroxy-3-methylbutyl)-1H-indazol-3-yl]-4-(1-pyridin-3-yl-1H-indol-3-yl)-1H-pyrrole-2,5-dione], the fold induction at 10 µM in experiment [1] (setting [5]) was determined as 0.948; in experiment [2] (setting [10]), 1.04. The “Proliferative Response Total cells” value worked out at 9871 in experiment [1] (setting [6]) and 14529 in experiment [1] (setting [8]). Moreover, the “SOX-17 Expression Total Intensity” value in experiment [2] turned out to be 1013360000. Besides, in experiment [3] (setting [11]), the viability at 10 µM is 97.8%. Besides, the “Raw data (duplicate), first replicate” value in experiment [3] is listed as 0.770. The “Raw data (duplicate), second replicate” value in experiment [3] turned out to be 0.786. Moreover, in experiment [3], the Average amounted to 0.778. Also, the “Average of raw data (duplicate)” value in experiment [3] (cmpd conc 2.5 μM) was 0.8427; in experiment [3] (cmpd conc 5 μM) it was 0.8021; in experiment [3] (cmpd conc 10 μM) it was 0.7287. Besides, the “HNF-3b Expression Total Intensity” value in experiment [4] is reported as 540725000.
`CN(C)c1ccc(-n2cc(C3=C(c4nn(CCO)c5ccccc45)C(=O)NC3=O)c3cc(Cl)ccc32)cn1` [Compound 148, 3-{5-Chloro-1-[6-(dimethylamino)pyridin-3-yl]-1H-indol-3-yl}-4-[1-(2-hydroxyethyl)-1H-indazol-3-yl]-1H-pyrrole-2,5-dione]: the fold induction at 10 µM in experiment [1] (setting [5]) amounted to 0.799; in experiment [2] (setting [10]), 0.719. Also, the results for the “Proliferative Response Total cells” value in experiment [1] (setting [6]) and in experiment [1] (setting [8]) were 6536 and 12243, respectively. Moreover, the “SOX-17 Expression Total Intensity” value in experiment [2] is reported as 699160000. In experiment [3] (setting [11]), the viability at 10 µM worked out at 88.8%. In experiment [3], the “Raw data (duplicate), first replicate” value is 0.753. The “Raw data (duplicate), second replicate” value in experiment [3] is 0.687. Moreover, the Average in experiment [3] came to 0.720. Also, the “Average of raw data (duplicate)” value in experiment [3] (cmpd conc 2.5 μM) was determined as 0.2669; in experiment [3] (cmpd conc 5 μM), 0.1559; in experiment [3] (cmpd conc 10 μM), 0.1537. For the same compound, the “HNF-3b Expression Total Intensity” value in experiment [4] worked out at 248855000.
In the case of `O=C1NC(=O)C(c2cn(-c3cccnc3)c3ccccc23)=C1c1cn(CCO)c2ccccc12` [Compound 206, 3-[1-(2-Hydroxyethyl)-1H-indol-3-yl]-4-(1-pyridin-3-yl-1H-indol-3-yl)-1H-pyrrole-2,5-dione], the fold induction at 10 µM worked out at 1.42 in experiment [1] (setting [5]); 1.74 in experiment [2] (setting [10]); 1.66 in experiment [4] (Homo sapiens, Embryonic stem cell, 10 μM test compound with 100 ng/ml activin A on days 1-2, H9, total intensity by IN Cell Analyzer, strong and moderate hits, read-out: HNF3β Expression, Fold over Wnt 3a/AA control). The results for the “Proliferative Response Total cells” value in experiment [1] (setting [6]) and in experiment [1] (setting [8]) were 10331 and 11886, respectively. For the same compound, the “SOX-17 Expression Total Intensity” value in experiment [2] is 223646667. Besides, the viability at 10 µM in experiment [3] (setting [11]) was 110%. In experiment [3], the “Raw data (duplicate), first replicate” value was found to be 0.845. Moreover, the “Raw data (duplicate), second replicate” value in experiment [3] amounted to 0.877. Further, in experiment [3], the Average came to 0.861. Also, the results for the “Average of raw data (duplicate)” value in experiment [3] (cmpd conc 2.5 μM), in experiment [3] (cmpd conc 5 μM) and in experiment [3] (cmpd conc 10 μM) were 0.7517, 0.7326 and 0.1793, respectively. The “HNF-3b Expression Total Intensity” value in experiment [4] is reported as 309900000.
